Assay results taken from PMC6868012, “Discovery of novel potential selective HDAC8 inhibitors by combine ligand-based, structure-based virtual screening and in-vitro biological evaluation” (Scientific Reports, 2019).
Read-outs that look alike come from different tables or passages of the source. Each block holds one compound with its values, some of them ahead of it.

Tests used:
HDAC8 [1] = molecular target: T1, HDAC8 (Homo sapiens, UniProt Q9BY41); settings: cited from earlier work; for IC50 / pIC50: Table S1, external validation set; for Activity (experimental pIC50): Table S2, training and test set molecules, converted from literature IC50
T1 sequence (Q9BY41 1-377): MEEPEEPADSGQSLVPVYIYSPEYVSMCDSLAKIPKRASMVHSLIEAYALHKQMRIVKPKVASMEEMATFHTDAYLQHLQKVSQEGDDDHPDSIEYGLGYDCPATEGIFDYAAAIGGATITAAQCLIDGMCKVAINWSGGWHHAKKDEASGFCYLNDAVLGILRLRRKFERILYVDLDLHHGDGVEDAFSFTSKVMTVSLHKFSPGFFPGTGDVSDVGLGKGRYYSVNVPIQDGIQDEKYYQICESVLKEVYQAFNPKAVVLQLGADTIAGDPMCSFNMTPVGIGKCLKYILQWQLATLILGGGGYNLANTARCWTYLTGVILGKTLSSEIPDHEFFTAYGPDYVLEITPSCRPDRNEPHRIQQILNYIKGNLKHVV

HDAC6 = molecular target: T2, HDAC6 (Homo sapiens, UniProt Q9UBN7); assay: HDAC6 activity assay (fluorometric, Sigma CS1010, Boc-Lys(Ac)-AMC); type: biochemical; settings: read-out: HDAC-6 (IC50 in nM)
T2 sequence (Q9UBN7 1-1215): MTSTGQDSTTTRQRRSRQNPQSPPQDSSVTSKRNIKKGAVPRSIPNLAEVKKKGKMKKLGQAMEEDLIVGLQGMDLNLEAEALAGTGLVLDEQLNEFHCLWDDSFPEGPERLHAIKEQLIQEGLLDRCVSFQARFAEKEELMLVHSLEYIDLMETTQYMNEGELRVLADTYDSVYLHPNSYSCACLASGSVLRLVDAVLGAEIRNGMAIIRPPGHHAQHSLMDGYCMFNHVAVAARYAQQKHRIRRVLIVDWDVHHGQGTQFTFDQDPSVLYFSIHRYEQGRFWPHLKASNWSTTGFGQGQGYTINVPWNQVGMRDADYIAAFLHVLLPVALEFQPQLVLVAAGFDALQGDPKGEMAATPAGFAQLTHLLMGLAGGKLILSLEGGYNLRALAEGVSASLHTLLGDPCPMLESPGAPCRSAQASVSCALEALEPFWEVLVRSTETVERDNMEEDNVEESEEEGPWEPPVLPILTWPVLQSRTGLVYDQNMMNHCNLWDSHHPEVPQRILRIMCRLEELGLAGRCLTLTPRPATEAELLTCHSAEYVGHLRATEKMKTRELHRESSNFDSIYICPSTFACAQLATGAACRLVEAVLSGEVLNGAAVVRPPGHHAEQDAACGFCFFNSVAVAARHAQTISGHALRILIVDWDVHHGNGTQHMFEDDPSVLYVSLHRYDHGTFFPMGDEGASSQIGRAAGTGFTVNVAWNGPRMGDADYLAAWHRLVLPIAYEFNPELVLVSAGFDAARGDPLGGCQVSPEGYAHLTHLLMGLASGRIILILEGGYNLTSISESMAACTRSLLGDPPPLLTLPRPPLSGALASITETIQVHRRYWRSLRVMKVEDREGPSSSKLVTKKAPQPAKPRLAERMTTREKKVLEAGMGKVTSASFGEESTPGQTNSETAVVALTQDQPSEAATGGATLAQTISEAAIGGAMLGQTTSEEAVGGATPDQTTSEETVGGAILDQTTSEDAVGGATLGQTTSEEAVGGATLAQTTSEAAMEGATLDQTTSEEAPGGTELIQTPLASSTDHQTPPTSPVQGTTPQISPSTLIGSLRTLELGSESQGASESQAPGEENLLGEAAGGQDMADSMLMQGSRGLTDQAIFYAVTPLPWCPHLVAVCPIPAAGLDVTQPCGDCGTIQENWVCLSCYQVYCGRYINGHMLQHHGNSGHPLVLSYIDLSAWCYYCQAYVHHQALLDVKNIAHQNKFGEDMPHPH
Method: (§1) HDAC 6 and 8 activities were measured according to the manufacturer’s protocol from Sigma (Cat# CS1010). […] Trichostatin A was used as a reference inhibitor. The Perkin Elmer multimode reader, model-Enspire 2300 was used for fluorescence plate reader.

HDAC8 [2] = molecular target: T1, HDAC8; assay: HDAC8 activity assay (fluorometric, Sigma CS1010, Boc-Lys(Ac)-AMC); type: biochemical; settings: read-out: HDAC-8 (IC50 in nM)
Method: as §1

SMILES: O=C(Cc1cccc(NC(=O)NC(=O)c2ccccc2)c1)NO [compound 10]
IC50 (HDAC8 [1]): 66000 nM
pIC50 (HDAC8 [1]): 4.18
Activity (experimental pIC50) (HDAC8 [1]): 6.824

SMILES: O=C(/C=C/c1ccc2c(c1)nc(COCc1ccccc1)n2CCc1cccnc1)NO [compound 15]
IC50 (HDAC8 [1]): 180 nM
pIC50 (HDAC8 [1]): 6.745

IC50 (HDAC6): 30.9 nM
IC50 (HDAC8 [2]): 41.6 nM
SMILES: CONC(=O)NCc1ccc2cc(OC)ccc2c1 [SD-05, 1-methoxy-3-((6-methoxynaphthalen-2-yl)methyl)urea]

SMILES: O=C(/C=C/c1ccc(CN(CCc2cc3ccccc3[nH]2)C(=O)NC(=O)c2ccccc2)cc1)NO [compound 13]
IC50 (HDAC8 [1]): 15700 nM
pIC50 (HDAC8 [1]): 4.804
Activity (experimental pIC50) (HDAC8 [1]): 6.678

SMILES: O=C(COc1ccccc1)Cc1nc(-c2ccc(C(=O)NO)s2)cs1 [compound 3]
Activity (experimental pIC50) (HDAC8 [1]): 7.420

SMILES: Cc1ccc(S(=O)(=O)NC(=O)Nc2cccc(/C=C/C(=O)NO)c2)cc1 [compound 5]
Activity (experimental pIC50) (HDAC8 [1]): 7.398

SMILES: CN(C)CC(C)(C)Cn1c(CCc2ccccc2)nc2cc(/C=C/C(=O)NO)ccc21 [compound 19]
IC50 (HDAC8 [1]): 120 nM
pIC50 (HDAC8 [1]): 6.921

SMILES: O=C(Cc1ccc(-c2csc(NC(=O)c3cnc([C@H]4CCCNC4)s3)n2)s1)NO [compound 4]
Activity (experimental pIC50) (HDAC8 [1]): 7.398

SMILES: O=C(Cc1ccccc1)Nc1nc(-c2cc(C(=O)NO)no2)cs1 [compound 16]
IC50 (HDAC8 [1]): 100 nM
pIC50 (HDAC8 [1]): 7
Activity (experimental pIC50) (HDAC8 [1]): 6.469

SMILES: Cc1ccc(S(=O)(=O)NC(=O)NCc2ccc(C(=O)NO)cc2)cc1 [compound 6]
Activity (experimental pIC50) (HDAC8 [1]): 7.310

SMILES: CC(/C=C/C(=O)NO)=C\C(C)Cc1ccc(N(C)C)cc1 (stereo not shown) [compound 20]
IC50 (HDAC8 [1]): 220 nM
pIC50 (HDAC8 [1]): 6.658
Activity (experimental pIC50) (HDAC8 [1]): 6.398

SMILES: O=C(NO)c1ccc(-c2cccc(CNCCc3ccccn3)c2)s1 [compound 7]
Activity (experimental pIC50) (HDAC8 [1]): 7.301

SMILES: C[C@H](N)C(=O)NCc1nnc(-c2ccccc2)o1 [compound 31]
Activity (experimental pIC50) (HDAC8 [1]): 7.009

SMILES: O=C(/C=C/c1ccc2c(c1)ncn2Cc1ccccc1)NO [compound 21]
IC50 (HDAC8 [1]): 52 nM
pIC50 (HDAC8 [1]): 7.284

SMILES: O=C(Nc1cccc(-c2cc(C(=O)NO)n[nH]2)c1)c1ccccc1 [compound 18]
IC50 (HDAC8 [1]): 150 nM
pIC50 (HDAC8 [1]): 6.824
Activity (experimental pIC50) (HDAC8 [1]): 6.456

IC50 (HDAC6): > 100 nM
IC50 (HDAC8 [2]): 9 nM
SMILES: COc1cccc(-c2nc(CNc3ccccc3SCC(N)=O)cs2)c1 [SD-01, 2-((2-(((2-(3-methoxyphenyl)thiazol-4-yl)methyl)amino)phenyl)thio)acetamide]

SMILES: O=C(CCCCCNC(=O)NC(=O)c1ccccc1)NO [compound 25]
Activity (experimental pIC50) (HDAC8 [1]): 5.971

SMILES: Cc1ccc(Cc2cn(C)c3cc(C(=O)NO)ccc23)cc1 [compound 2]
Activity (experimental pIC50) (HDAC8 [1]): 7.620

SMILES: O=C(/C=C/c1ccc2c(c1)nc(-c1ccccn1)n2C[C@H](O)CO)NO [compound 17]
IC50 (HDAC8 [1]): 1400 nM
pIC50 (HDAC8 [1]): 5.854
Activity (experimental pIC50) (HDAC8 [1]): 6.463

SMILES: O=C(NO)c1ccc(NC(=S)NN=C(c2ccccc2)c2ccccc2)cc1 [compound 30]
Activity (experimental pIC50) (HDAC8 [1]): 4.633

SMILES: CN(C)Cc1c(C(=O)NCCOc2ccc(C(=O)NO)cc2)oc2ccccc12 [compound 12]
IC50 (HDAC8 [1]): 19700 nM
pIC50 (HDAC8 [1]): 4.706

SMILES: O=C(Cc1ccc(-c2csc(NC(=O)c3ccn(CC4CCNCC4)c3-c3ccccc3)c2)s1)NO [compound 9]
Activity (experimental pIC50) (HDAC8 [1]): 6.854

SMILES: O=C(/C=C/c1ccc(CN(CCN2CCCCC2)C(=O)NC(=O)c2ccccc2)cc1)NO [compound 14]
IC50 (HDAC8 [1]): 350 nM
pIC50 (HDAC8 [1]): 6.456
Activity (experimental pIC50) (HDAC8 [1]): 6.638

IC50 (HDAC6): > 100 nM
IC50 (HDAC8 [2]): > 100 nM
SMILES: NC(=O)Cc1nc(-c2cc3cc(Cl)ccc3o2)cs1 [SD-04, 2-(4-(5-chlorobenzofuran-2-yl)thiazol-2-yl)acetamide]

SMILES: O=C(NO)c1ccc(CN2CCN(C(=O)NC(=O)c3ccccc3)CC2)cc1 [compound 22]
IC50 (HDAC8 [1]): 29 nM
pIC50 (HDAC8 [1]): 7.538
Activity (experimental pIC50) (HDAC8 [1]): 6.337

SMILES: CC(=O)SCC(=O)CCCCCCC(=O)Nc1ccccc1 [compound 11]
IC50 (HDAC8 [1]): 700 nM
pIC50 (HDAC8 [1]): 6.155

IC50 (HDAC6): > 100 nM
IC50 (HDAC8 [2]): > 100 nM
SMILES: COC(=O)c1ccc(Oc2coc3cc(OCC(N)=O)ccc3c2=O)cc1 [SD-03, methyl 4-((7-(2-amino-2-oxoethoxy)-4-oxo-4H-chromen-3-yl)oxy)benzoate]
